Data: patent US5608069A, “1-substituted, 3-carboxylic acid piperidine derivatives” (Novo Nordisk A/S, priority 1993, dated 1997)
Where a name gives a salt, the structure may show the parent alone.

Tested on: not given
Assay: not given
Conditions: relatively polar compound; cited from earlier work
In the case of O=C(O)C1CCCNC1 (stereo not drawn) [nipecotic acid, 3-piperidinecarboxylic acid], the “ability to cross the blood-brain barrier (in words)” value is listed as “unable to cross the blood-brain barrier”.

Tested on: GABA uptake
Assay: not given
Conditions: Yunger, L. M. et al., 1984; Krogsgaard-Larsen, P. et al., 1987; oral; cited from earlier work
In the case of O=C(O)C1CCCN(CCC=C(c2ccccc2)c2ccccc2)C1 (stereo not drawn) [SK&F 89976A, N-(4,4-diphenyl-3-buten-1-yl)nipecotic acid], the “orally active inhibition of GABA uptake (in words)” value (“orally active inhibition” for short) is given as “orally active inhibitors of GABA uptake”. For O=C(O)C1=CCCN(CCC=C(c2ccccc2)c2ccccc2)C1 [SK&F 100330A, N-(4,4-diphenyl-3-buten-1-yl)guvacine], the “orally active inhibition” value is listed as “orally active inhibitors of GABA uptake”. In the case of O=C(O)CC1CCN(CCC=C(c2ccccc2)c2ccccc2)C1 (stereo not drawn) [SK&F 100561, N-(4,4-diphenyl-3-buten-1-yl)-homo-β-proline], the “orally active inhibition” value is listed as “orally active inhibitors of GABA uptake”. For O=C(O)C1CCCN(CCC=C(c2ccccc2)c2cccs2)C1 (stereo not drawn) [SK&F 100604J, N-(4-phenyl-4-(2-thienyl)-3-buten-1-yl)nipecotic acid], the “orally active inhibition” value is listed as “orally active inhibitors of GABA uptake”.

Same assay, conditions: from the synaptic cleft into presynaptic nerve terminals and glial cells; cited from earlier work
In the case of O=C(O)C1CCCNC1 (stereo not drawn) [nipecotic acid, 3-piperidinecarboxylic acid], the “inhibition of GABA uptake (in words)” value is listed as “well-known and potent inhibitor of GABA uptake”.

Tested on: [^3 H]-GABA uptake
Assay: in vitro inhibition of [^3 H]-GABA uptake (rat cortical tissue homogenate)
Assay type: biochemical, Male wistar rat
Conditions: tris HCl buffer pH 7.5, 60 minutes at 30° C.
Description: Values for in vitro inhibition of [^3 H]-GABA uptake for the invention compounds were assessed essentially by the method of Fjalland (Acta Pharmacol. Toxicol. 1978, 42, 73-76). Male wistar rat cortical tissue was gently homogenized by hand using a glass/PTFE homogenizer in 10 volumes of 0.32M sucrose. Incubation was performed in a 40 mM tris HCl buffer (pH 7.5 at 30° C.) containing […], 4 mM MgSO4, […] and 10 mM glucose, for 60 minutes at 30° C. Values for inhibition of GABA uptake for some representative compounds are recorded in Table I.
Cc1ccccc1/C=N/OCCN1CCC[C@@H](C(=O)O)C1 [Example 1, E-(R )-1-(2-((((2-Methylphenyl)methylene)amino)oxy)ethyl)-3-piperidinecarboxylic acid hydrochloride] showed an IC50 of over 9 µM. In the case of CC(C)C=C(C=NOCCN1CCC[C@@H](C(=O)O)C1)c1ccccc1 [Example 2], the IC50 is reported as 0.236 µM. For CCCCCCC/C(=N/OCCN1CCC[C@@H](C(=O)O)C1)c1ccccc1 [Example 3, Z-(R)-1-(2-(((1-Phenyl-1-octanylidene)amino)oxy)ethyl)-3-piperidinecarboxylic acid hydrochloride], the IC50 was 2.2 µM. For CCCCCCC/C(=N\OCCN1CCC[C@@H](C(=O)O)C1)c1ccccc1 [Example 4, E-(R)-1-(2-(((1-Phenyl-1-octanylidene)amino)oxy)ethyl)-3-piperidinecarboxylic acid hydrochloride], the IC50 was 1.1 µM. COC/C(=N\OCCN1CCC[C@@H](C(=O)O)C1)c1ccccc1 [Example 5, Z-(R)-1-(2-(((2-Methoxy-1-phenyl-1-ethylidene)amino)oxy)ethyl)-3-piperidinecarboxylic acid hydrochloride] gave an IC50 of 2 µM. Compound O=C(O)[C@@H]1CCCN(CCO/N=C(/c2ccccc2)C(F)(F)F)C1 [Example 6, Z-(R)-1-(2-(((1-Phenyl-2,2,2-trifluoro-1-ethylidene)amino)oxy)ethyl)-3-piperidinecarboxylic acid hydrochloride] has an IC50 of 4.5 µM.
